Assay results reported in patent US6627651B1, “Cyclic compounds and uses thereof” (Takeda Chemical Industries, Ltd., priority 1999, dated 2003).

System: not given
Assay: not given
Details: not given

SMILES	melting point
CCCOCCOc1ccc(COc2ccc3c(c2)C=C(C(=O)Nc2ccc(CN(C)C4CCOCC4)cc2)CCS3(=O)=O)cc1 [Compound 108, N-[4-[[N-methyl-N-(tetrahydropyran-4-yl)amino]methyl]phenyl]-7-[[4-(2-propoxyethoxy)benzyl]oxy]-1,1-dioxo-2,3-dihydro-1-benzothiepine-4-carboxamide]	175 to 176 °C
Cc1ccc(-c2ccc3c(c2)C=C(C(=O)NC2CCN(C4CCOCC4)CC2)CCO3)cc1 [Compound 56, N-(1-(tetrahydropyran-4-yl)piperidin-4-yl)-7-(4-methylphenyl)-2,3-dihydro-1-benzooxepine-4-carboxamide]	199 to 204 °C (dec.)
CCCOc1ccc(CCCOc2ccc3c(c2)C=C(C(=O)Nc2ccc(CN(C)C4CCOCC4)cc2)CCS3(=O)=O)cc1 [Compound 121, N-[4-[[N-methyl-N-(tetrahydropyran-4-yl)amino]methyl]phenyl]-7-[3-(4-propoxyphenyl)propoxy]-1,1-dioxo-2,3-dihydro-1-benzothiepine-4-carboxamide]	178 to 181 °C
CCCOc1ccccc1COc1ccc2c(c1)C=C(C(=O)Nc1ccc(CN(C)C3CCOCC3)cc1)CCS2(=O)=O [Compound 21, N-[4-[N-methyl-N-(tetrahydropyran-4-yl)aminomethyl]phenyl]-7-[(2-propoxybenzyl)oxy]-1,1-dioxo-2,3-dihydro-1-benzothiepine-4-carboxamide]	190 to 192 °C
CCCOc1ccccc1CCOc1ccc2c(c1)C=C(C(=O)Nc1ccc(CN(C)C3CCOCC3)cc1)CCS2(=O)=O [Compound 106, N-[4-[[N-methyl-N-(tetrahydropyran-4-yl)amino]methyl]phenyl]-7-[(2-propoxyphenethyl)oxy]-1,1-dioxo-2,3-dihydro-1-benzothiepine-4-carboxamide]	161 to 162 °C
Cc1ccc(-c2ccc3c(c2)C=C(N(C)c2ccc(CN(C)C4CCOCC4)cc2)CCO3)cc1 [Compound 34, N-[4-[(N-methyl-N-(tetrahydropyran-4-yl)aminomethyl)]phenyl]-N-[7-(4-methylphenyl)-2,3-dihydro-1-benzooxepin-4-yl]methylamine]	158 to 160 °C
Cc1ccc(-c2ccc3c(c2)C=C(C(=O)NC2CCN(Cc4ccccc4)CC2)CCO3)cc1 [Compound 58, N-(1-benzylpiperidin-4-yl)-7-(4-methylphenyl)-2,3-dihydro-1-benzooxepine-4-carboxamide]	161 to 162 °C (dec.)
Cc1ccc(-c2ccc3c(c2)C=C(C(=O)NC2CCN(CCC4CCCCC4)CC2)CCO3)cc1 [Compound 60, N-(1-(2-cyclohexylethyl)piperidin-4-yl)-7-(4-methylphenyl)-2,3-dihydro-1-benzooxepine-4-carboxamide]	193 to 196 °C
Cc1ccc(-c2ccc3c(c2)C=C(C(=O)N[C@H]2CC[C@H](CN(C)C4CCOCC4)CC2)CCC3)cc1 [Compound 64, trans-2-(4-methylphenyl)-N-[4-[N-methyl-N-(tetrahydropyran-4-yl)aminomethyl]cyclohexyl]-6,7-dihydro-5H-benzocycloheptene-8-carboxamide]	163 to 165 °C
Cc1ccc(-c2ccc3c(c2)C=C(C(=O)NC2CCNCC2)CCO3)cc1 [Compound 54, N-(4-piperidinyl)-7-(4-methylphenyl)-2,3-dihydro-1-benzooxepine-4-carboxamide]	183 to 185 °C
Cc1ccc(-c2ccc3c(c2)C=C(C(=O)N[C@H]2CC[C@H](CN(C)C4CCN(C(=O)OC(C)(C)C)CC4)CC2)CCO3)cc1 [Compound 65, trans-N-[4-[N-(1-tert-butoxycarbonylpiperidin-4-yl)-N-methylaminomethyl]cyclohexyl]-7-(4-methylphenyl)-2,3-dihydro-1-benzooxepine-4-carboxamide]	146 to 150 °C
Cc1ccc(-c2ccc3c(c2)C=C(C(=O)NC2CCN(CC4=CCCCCCCC4)CC2)CCO3)cc1 [Compound 59, N-(1-(cyclononen-1-yl)methylpiperidin-4-yl)-7-(4-methylphenyl)-2,3-dihydro-1-benzooxepine-4-carboxamide]	128 to 130 °C
C[N+]1(Cc2ccc(NC(=O)C3CCc4ccc(-c5ccccc5)cc4C3)cc2)CCCCC1.[I-] (stereo not drawn) [Compound 83, 1-[4-(7-phenyl-1,2,3,4-tetrahydronaphthalene-2-carboxamido)benzyl]-1-methylpiperidinium iodide]	205 to 208 °C
CCOc1cccc(COc2ccc3c(c2)C=C(C(=O)Nc2ccc(CN(C)C4CCOCC4)cc2)CCS3(=O)=O)c1 [Compound 118, 7-(3-ethoxybenzyloxy)-N-[4-[[N-methyl-N-(tetrahydropyran-4-yl)amino]methyl]phenyl]-1,1-dioxo-2,3-dihydro-1-benzothiepine-4-carboxamide]	189 to 192 °C
CCCOCCOc1ccc(Oc2ccc3c(c2)C=C(C(=O)Nc2ccc(CN(C)C4CCOCC4)cc2)CCS3(=O)=O)cc1OCC [Compound 114, 7-[3-ethoxy-4-(2-propoxyethoxy)phenoxy]-N-[4-[[N-methyl-N-(tetrahydropyran-4-yl)amino]methyl]phenyl]-1,1-dioxo-2,3-dihydro-1-benzothiepine-4-carboxamide]	159 to 160 °C
CCOCCOc1c(C)cc(Oc2ccc3c(c2)C=C(C(=O)Nc2ccc(CN(C)C4CCOCC4)cc2)CCS3(=O)=O)cc1C [Compound 126, 7-[4-(2-ethoxyethoxy)-3,5-dimethylphenoxy]-N-[4-[[N-methyl-N-(tetrahydro-2H-pyran-4-yl)amino]methyl]phenyl]-1,1-dioxo-2,3-dihydro-1-benzothiepine-4-carboxamide]	111 to 113 °C
Cc1ccc(COc2cccc(/C=C/c3ccc(CN4CCCCC4)cc3)c2)cc1 [Compound 97, (E)-1-[4-[3-(4-methylbenzyloxy)styryl]benzyl]piperidine]	87 to 88 °C
Cc1ccc(-c2ccc3c(c2)C=C(C(=O)NC2CCN(CC4=CCCCCCC4)CC2)CCO3)cc1 [Compound 57, N-(1-(cycloocten-1-yl)methylpiperidin-4-yl)-7-(4-methylphenyl)-2,3-dihydro-1-benzooxepine-4-carboxamide]	148 to 151 °C
CN(Cc1ccc(NC(=O)C2CCS(=O)(=O)c3ccc(OCc4ccc(F)cc4)cc3C2)cc1)C1CCOCC1 (stereo not drawn) [Compound 3, 7-(4-fluorobenzyloxy)-N-[4-[N-methyl-N-(tetrahydropyran-4-yl)aminomethyl]phenyl]-1,1-dioxo-3,4-dihydro-1-benzothiepine-4-carboxamide]	232 to 234 °C

Target: T1, human CCR5 (Homo sapiens, UniProt P51681)
T1 construct: expressed in transfected cells
T1 sequence (P51681 whole entry): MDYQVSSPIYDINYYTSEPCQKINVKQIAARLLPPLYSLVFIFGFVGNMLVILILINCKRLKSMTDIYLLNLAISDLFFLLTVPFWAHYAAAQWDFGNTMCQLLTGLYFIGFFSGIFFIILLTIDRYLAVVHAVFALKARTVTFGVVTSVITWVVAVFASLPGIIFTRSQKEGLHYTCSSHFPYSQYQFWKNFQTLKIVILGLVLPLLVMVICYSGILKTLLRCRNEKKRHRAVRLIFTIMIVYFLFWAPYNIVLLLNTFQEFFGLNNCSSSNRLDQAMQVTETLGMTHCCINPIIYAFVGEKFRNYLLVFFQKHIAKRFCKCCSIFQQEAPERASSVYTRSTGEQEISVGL
Assay: CCR5-binding inhibition: [125I]-RANTES binding to CHO/CCR5 cells
Details: test compound 1 μM; ligand [125I]-RANTES 100 pM; CHO/CCR5 strains; room temperature, 30 minutes
Description: After CHO-K1 cells, which were grown in a 750-ml, tissue culture flask (Beckton, Dickinson and Company) using Ham F12 medium (Nihon Pharmaceutical Co., Ltd.) containing 10% fetal calf serum (Life Technologies Oriental, Inc.), were removed from the flask with 0.5/L trypsin-0.2 g/L EDTA (Life Technologies Oriental, Inc.), the cells were washed with PBS (Life Technologies Oriental, Inc.), were centrifuged (1000 rpm, 5 minutes) and were suspended in PBS. Next, DNA was introduced into the cells by the use of Gene Pulser (Bio-Rad Laboratories Inc.) under the following conditions. In other words, 8×10^6 cells and 10 μg human CCR5 expression plasmid pCKR5 were added into a cuvette with a 0.4-cm gap, and the cells were electroporated at 0.25 kV under a capacitance of 960 μF. Subsequently, the cells were transferred to Ham F12 medium containing 10% fetal calf serum, and were cultivated for 24 hours. The cells were then removed from the flask again for centrifugation, were then suspended in Ham F12 medium containing 10% fetal serum albumin containing geneticin (Life Technologies Oriental, Inc.) at a final concentration of 500 μg/ml, were diluted to 10^4 cells/ml and were seeded into 96-well plates (Beckton, Dickinson and Company) to obtain geneticin-resistant strains.
Next, after the thus-obtained geneticin-resistant strains were cultivated in a 96-well plate (Beckton, Dickinson and Company), cells expressing CCR5 were selected from the resistant strains. In other words, the binding reaction was carried out at room temperature for 40 minutes in an assay buffer (Ham F12 medium containing 0.5% BSA and 20 mM HEPES (Wako Pure Chemical Industries, Ltd.)) that is supplemented with 200 pM [^125I]-RANTES (Amersham plc) as a ligand, and the cells were washed with ice-cold PBS, were then stirred after adding 50 μl/well of 1M NaOH and were counted for radioactivity in a γ-counter to select CHO/CCR5 strains, the cells to which the ligand was specifically bound.
CHO/CCR5 strains were seeded into 96-well microplates at a density of 5×10^4 cells/well, and were cultivated for 24 hours. After the culture fluid was removed by suction, the assay buffer containing a test compound (1 μM) was added to each well, and a ligand [^125I]-RANTES (Amersham Corporation) was added to a final concentration of 100 pM, after which the reaction was carried out at room temperature for 30 minutes. Next, after the assay buffer was removed by suction, the cells were washed twice with ice-cold PBS. Subsequently, 200 μl of MicroScint-20 (Packard Industry Company, Inc.) was added to each well, which was counted for radioactivity in a Top Count (Packard Industry Company, Inc.).
Percentages of CCR5-binding inhibition by test compounds were determined according to the method described above.

SMILES	inhibition at 1 µM	Inhibition of binding (%)
CCCOCCOc1ccc(COc2ccc3c(c2)C=C(C(=O)Nc2ccc(CN(C)C4CCOCC4)cc2)CCS3(=O)=O)cc1 [Compound 108, N-[4-[[N-methyl-N-(tetrahydropyran-4-yl)amino]methyl]phenyl]-7-[[4-(2-propoxyethoxy)benzyl]oxy]-1,1-dioxo-2,3-dihydro-1-benzothiepine-4-carboxamide]	86%	–
CCCOc1ccc(CCOc2ccc3c(c2)C=C(C(=O)Nc2ccc(CN(C)C4CCOCC4)cc2)CCS3(=O)=O)cc1 [Compound 19, N-[4-[N-methyl-N-(tetrahydropyran-4-yl)aminomethyl]phenyl]-7-[4-(propoxyphenethyl)oxy]-1,1-dioxo-2,3-dihydro-1-benzothiepine-4-carboxamide]	–	86%
CCCOc1ccc(COc2ccc3c(c2)C=C(C(=O)Nc2ccc(CN(C)C4CCOCC4)cc2)CCS3(=O)=O)cc1 [Compound 100]	–	89%
Cc1ccc(-c2ccc3c(c2)C=C(C(=O)NC2CCN(C4CCOCC4)CC2)CCO3)cc1 [Compound 56, N-(1-(tetrahydropyran-4-yl)piperidin-4-yl)-7-(4-methylphenyl)-2,3-dihydro-1-benzooxepine-4-carboxamide]	74%	–
Cc1ccc(-c2ccc3c(c2)C=C(C(=O)Nc2ccc(CC4=NCCN4)cc2)CCO3)cc1 [Compound 94]	–	76%
CCCOc1ccc(CCCOc2ccc3c(c2)C=C(C(=O)Nc2ccc(CN(C)C4CCOCC4)cc2)CCS3(=O)=O)cc1 [Compound 121, N-[4-[[N-methyl-N-(tetrahydropyran-4-yl)amino]methyl]phenyl]-7-[3-(4-propoxyphenyl)propoxy]-1,1-dioxo-2,3-dihydro-1-benzothiepine-4-carboxamide]	82%	–
CCCOc1ccccc1COc1ccc2c(c1)C=C(C(=O)Nc1ccc(CN(C)C3CCOCC3)cc1)CCS2(=O)=O [Compound 21, N-[4-[N-methyl-N-(tetrahydropyran-4-yl)aminomethyl]phenyl]-7-[(2-propoxybenzyl)oxy]-1,1-dioxo-2,3-dihydro-1-benzothiepine-4-carboxamide]	98%	–
CCCOc1cccc(COc2ccc3c(c2)C=C(C(=O)Nc2ccc(CN(C)C4CCOCC4)cc2)CCS3(=O)=O)c1 [Compound 20]	–	94%
